From patent publication US11034695B2, “Dopamine-β-hydroxylase inhibitors” (BIAL—PORTELA & Ca, S.A., priority 2016, dated 2021)

Target: T1, Dopamine beta hydroxylase activity in human plasma (Homo sapiens, UniProt P09172)
T1 construct: 125 μl of plasma (or saline for blank reaction or standard curve); tissue Instituto Português do Sangue Transplantação; host or cells: human plasma from healthy donors
T1 sequence (P09172 40-617 limits assumed): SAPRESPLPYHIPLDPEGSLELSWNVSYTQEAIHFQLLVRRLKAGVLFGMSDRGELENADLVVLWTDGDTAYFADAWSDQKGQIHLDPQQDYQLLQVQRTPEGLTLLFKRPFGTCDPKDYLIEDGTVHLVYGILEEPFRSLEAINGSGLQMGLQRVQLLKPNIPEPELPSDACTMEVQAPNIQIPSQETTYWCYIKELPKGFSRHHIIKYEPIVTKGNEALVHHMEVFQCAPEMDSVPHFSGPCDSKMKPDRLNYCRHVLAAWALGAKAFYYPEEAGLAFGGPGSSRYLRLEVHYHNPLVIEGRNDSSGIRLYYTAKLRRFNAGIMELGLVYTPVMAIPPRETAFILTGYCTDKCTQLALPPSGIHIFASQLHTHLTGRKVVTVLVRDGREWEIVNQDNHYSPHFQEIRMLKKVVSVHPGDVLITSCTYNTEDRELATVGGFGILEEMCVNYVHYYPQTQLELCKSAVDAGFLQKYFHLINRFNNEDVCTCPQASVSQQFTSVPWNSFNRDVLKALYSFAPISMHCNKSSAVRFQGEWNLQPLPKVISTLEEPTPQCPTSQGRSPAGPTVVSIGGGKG
Test: DβH activity in human plasma
Type: biochemical
Conditions: 0.1 μM inhibitor; human plasma; numbers in brackets; read-out: DβH activity in % of Ctrl (0.1 μM), human plasma assay
Description: Furthermore, the ability of a compound to inhibit DβH activity may be assessed in human plasma using the following assay. […]. Dopamine beta hydroxylase activity in human plasma was measured by the method previously developed (Nagatsu, T. and Udenfriend, S. Photometric assay of dopamine-β-hydroxylase activity in human blood. Clin. Chem. 18(9) 980-983, 1972) with minor modifications. Catalase, N-ethylmaleimide, tyramine, disodium fumarate, pargyline, sodium acetate, ascorbic acid, copper sulfate and octopamine were obtained from Sigma Chemical Co., St. Louis, Mo. 63178. Human plasma samples were obtained from healthy donors (Instituto Português do Sangue Transplantação, Centro Sangue Transplantação, Porto, Portugal). From date of collection, plasma was stored at −80° C. until use. Test compounds were initially prepared in dimethyl sulfoxide at a concentration of 10 mM and diluted in dimethyl sulfoxide to the required concentrations. Test compounds were further diluted in ultrapure water to a concentration 20-fold to that of the final concentration to be tested. Final concentrations of test compounds were 10, 100 and 1000 nM. The various reagents used to make up the incubation buffer were premixed and consisted of the following components: sodium acetate buffer (1 M, pH 5.0, 18 ml), sodium fumarate (0.2 M, 4.5 ml), ascorbic acid (0.2 M, 4.5 ml, freshly prepared), pargyline (20 mM, freshly prepared, 4.5 ml), N-ethylmaleimide (0.2 M, 4.5 ml), catalase (10 000 U/ml, 9 ml), copper sulfate (20 μM, 4.5 ml) and 4.5 ultrapure water. The standard incubation mixture (total volume, 950 μl) contained: 50 μL of compound or vehicle (dimethyl sulfoxide 2%); 700 μL of incubation buffer; 125 μl of plasma (or saline for blank reaction or standard curve); 75 μl of saline. The reaction mixture was placed in water bath, shaking at 37° C. and pre-incubated for 10 minutes. Tyramine (0.5 M) was added and incubation proceeded for 45 minutes. The reaction contents were exposed to air. A sample of enzyme preparation (with 125 μl of plasma) that had been added perchloric acid 2 M at the end of the pre-incubation period was used as blank. A blank for each of the tested compounds was used. For octopamine standard curve, perchloric acid 2 M was replaced by increasing concentrations of octopamine prepared in perchloric acid 2 M (0.5, 1, 2.5, 5, 7.5, 10, 15, 20 μg/ml, final concentration). The incubation was stopped by adding 200 μl of 2 M molar perchloric acid, and the mixture was centrifuged at 9000 g for 5 min. The supernatant fluid (800 μL) was transferred to a column (SPE cartridge ISOLUTE SCX-3, 100 mg) and centrifuged at 150 g for 2 min. The column was washed two more times with 0.5 ml of ultrapure water by centrifuging at 150 g for 2 min. The adsorbed octopamine was eluted twice with 0.3 ml of 4 M ammonium hydroxide by centrifuging at 150 g for 2 min. Octopamine in the eluate was then converted to p-hydroxybenzaldehyde by adding 200 μl of sodium periodate (2%) and incubating for 6 min. Excess periodate was than reduced by adding 200 μl of sodium metabisulfite (10%). Absorbance was measured at […] in a 96-well plate by use of a SpectraMAX plus 384 (Molecular Devices) with software SOFTmax® PRO Software 5.3 spectrophotometer. Absorbance was linear with octopamine concentration from 0.5 to 20 μg/ml. Dopamine beta hydroxylase activity is determined as nmol of octopamine formed/ml of plasma/hour and effect of compounds is presented as % control.
Results are reported in the table below (inside brackets) as activity in % of control at the inhibitor concentration tested.

Row | SMILES | remaining activity at 0.1 µM [%]
1 | Cc1[nH]c(=S)n2c1C[C@H](c1c(F)cccc1F)C2 [Example 22, (R)-6-(2,6-difluorophenyl)-1-methyl-2,5,6,7-tetrahydro-3H-pyrrolo[1,2-c]imidazole-3-thione] | 0.5
2 | [2H]C([2H])([2H])c1[nH]c(=S)n2c1[C@@H]1C[C@]1(c1cc(Br)ccc1F)C2 [Example 18, (5aS,6aR)-5a-(5-bromo-2-fluorophenyl)-1-(methyl-d3)-5,5a,6,6a-tetrahydrocyclopropa[3,4]pyrrolo[1,2-c]imidazole-3(2H)-thione] | 10
3 | Cc1[nH]c(=S)n2c1C[C@@H](c1c(F)c(F)cc(F)c1F)C2 [Example 6, (S)-1-methyl-6-(2,3,5,6-tetrafluorophenyl)-2,5,6,7-tetrahydro-3H-pyrrolo[1,2-c]imidazole-3-thione] | 74.1
4 | Cc1[nH]c(=S)n2c1C[C@@H](c1c(F)ccc(Br)c1F)C2 [Example 16, (S)-6-(3-bromo-2,6-difluorophenyl)-1-methyl-2,5,6,7-tetrahydro-3H-pyrrolo[1,2-c]imidazole-3-thione] | 12.1
5 | Cc1[nH]c(=S)n2c1C[C@H](c1c(F)ccc(Br)c1F)C2 [Example 15, (R)-6-(3-bromo-2,6-difluorophenyl)-1-methyl-2,5,6,7-tetrahydro-3H-pyrrolo[1,2-c]imidazole-3-thione] | 23.8
6 | Cc1[nH]c(=S)n2c1[C@@H]1C[C@]1(c1cc(Cl)ccc1F)C2 [Example 8, (5aS,6aR)-5a-(5-chloro-2-fluorophenyl)-1-methyl-5,5a,6,6a-tetrahydrocyclopropa[3,4]pyrrolo[1,2-c]imidazole-3(2H)-thione] | 38.3
7 | Cc1[nH]c(=S)n2c1C[C@@H](c1cc(Cl)ccc1F)C2 [Example 23, (S)-6-(5-chloro-2-fluorophenyl)-1-methyl-2,5,6,7-tetrahydro-3H-pyrrolo[1,2-c]imidazole-3-thione] | 67

Second part, the molecule after the results:

Row | remaining activity at 0.1 µM [%] | SMILES
8 | 88.8 | Cc1[nH]c(=S)n2c1C[C@H](c1cc(Br)ccc1F)C2 [Example 21, (R)-6-(5-bromo-2-fluorophenyl)-1-methyl-2,5,6,7-tetrahydro-3H-pyrrolo[1,2-c]imidazole-3-thione]
9 | 49.9 | Cc1[nH]c(=S)n2c1[C@@H]1C[C@]1(c1cc(F)cc(Cl)c1)C2 [Example 17, (5aS,6aR)-5a-(3-chloro-5-fluorophenyl)-1-methyl-5,5a,6,6a-tetrahydrocyclopropa[3,4]pyrrolo[1,2-c]imidazole-3(2H)-thione]
10 | 27.7 | Cc1[nH]c(=S)n2c1C[C@H](c1c(F)ccc(F)c1F)C2 [Example 20, (R)-1-methyl-6-(2,3,6-trifluorophenyl)-6,7-dihydro-2H-pyrrolo[1,2-c]imidazole-3(5H)-thione]
11 | 4.7 | Cc1[nH]c(=S)n2c1[C@@H]1C[C@]1(c1c(F)ccc(Cl)c1F)C2 [Example 14, (5aS,6aR)-5a-(3-chloro-2,6-difluorophenyl)-1-methyl-5,5a,6,6a-tetrahydrocyclopropa[3,4]pyrrolo[1,2-c]imidazole-3(2H)-thione]
12 | 57.3 | Cc1[nH]c(=S)n2c1C[C@H](c1c(F)c(F)cc(F)c1F)C2 [Example 5, (R)-1-methyl-6-(2,3,5,6-tetrafluorophenyl)-2,5,6,7-tetrahydro-3H-pyrrolo[1,2-c]-imidazole-3-thione]
13 | 39.1 | Cc1[nH]c(=S)n2c1C[C@@H](c1cc(Br)ccc1F)C2 [Example 19, (S)-6-(5-bromo-2-fluorophenyl)-1-methyl-2,5,6,7-tetrahydro-3H-pyrrolo[1,2-c]imidazole-3-thione]

Same assay, conditions: read-out: DβH activity in % of Ctrl (0.1 μM), human plasma assay

Row | SMILES | remaining activity at 0.1 µM [%]
14 | Cc1[nH]c(=S)n2c1[C@@H]1C[C@]1(c1cc(Br)ccc1F)C2 [Example 13, (5aS,6aR)-5a-(5-bromo-2-fluorophenyl)-1-methyl-5,5a,6,6a-tetrahydrocyclopropa[3,4]pyrrolo[1,2-c]imidazole-3(2H)-thione] | 9.8
